Reference: patent US20170151295A1, “USE OF CHI-JU-DI-HUANG-WAN IN TREATING RETINAL ISCHEMIA OR A DISEASE, CONDITION, OR DISORDER ASSOCIATED WITH RETINAL ISCHEMIA” (priority 2015, published 2017)

Key:
Type in all cases: in vivo, Wistar rats
[1] = tested on: P-p38 MAPK; assay: Western blotting, retinal P-p38 MAPK after I/R; settings: intravitreal 2 nmole 15 min before ischemia, I/R 24 h
Protocol: Intravitreal injections were performed using a 30-gauge needle attached to a 25 μl syringe after pupil dilation with 1% tropicamide and 2.5% phenylephrine. In certain instances, intravitreal injections of 4 μl of 2 nmole SB203580 (Calbiochem, San Diego, Calif.) or vehicle (an equal volume of DMSO) were performed on ischemic eyes fifteen minutes before pressure-induced retinal ischemia.
One day following retinal ischemia with preadministration of relevant compounds or following a sham procedure, the animals were sacrificed. Retinal samples were retrieved and sonicated in a lysis buffer, mammalian protein extraction reagent (Pierce, Ill.).

[2] = tested on: MMP-9; assay: Western blotting, retinal MMP-9 after I/R; settings: intravitreal 2 nmole 15 min before ischemia, I/R 24 h
[3] = tested on: MMP-9; assay: Gel zymography, retinal MMP-9 activity after I/R; settings: intravitreal 2 nmole 15 min before ischemia, 24 h after ischemia

## C[S+]([O-])c1ccc(-c2nc(-c3ccncc3)c(-c3ccc(F)cc3)[nH]2)cc1 (stereo not drawn) [SB203580]
[1]
  P-p38/β-actin protein ratio: 0.23 ± 0.05
[2]
  MMP-9/β-actin protein ratio (Western blotting): 0.31 ± 0.10
[3]
  MMP-9/β-actin (gel zymography, MMP-9 activity): 1.49 ± 0.21
